{"source": "patent US20190183961A1", "about": "“GLUTAMINE FOR PRESERVING, IMPROVING OR RESTORING KIDNEY FUNCTION” (Fresenius Kabi Deutschland GmbH, priority 2016, published 2019)", "system": "5/6 kidney nephrectomised rat model", "format": "in vivo", "settings": "for incidence of chronic progressive nephropathy (animals affected/animals examined) / effect on incidence/occurrence of chronic progressive nephropathy (in words): 9 days; for incidence of chronic progressive nephropathy (animals affected/animals examined): 5/6 nephrectomised rats; for effect on incidence/occurrence of chronic progressive nephropathy (in words): continuous i.v. infusion, all doses, versus nephrectomised control; for changes in blood levels of biomarkers for kidney and liver injury / treatment-related clinical signs / tolerability of intravenous infusion: rat, in vivo", "experimental": "The effect of L-glutamine (administered in form of L-alanyl-L-glutamine; Dipeptiven™) following daily continuous intravenous infusion was examined in a 5/6 kidney nephrectomised rat model.\nL-alanyl-L-glutamine was administered for 9 consecutive days. The effects attributable to L-glutamine (provided in form of alanyl-glutamine; Dipeptiven™) were determined by comparison to an L-alanine infusion.\nTo prevent protein overdose, the protein content of the animal food was adapted according to the L-alanyl-L-glutamine or L-alanine dose administered intravenously.\nThe study was conducted according to the following design:\nGroup 1 and 2 animals (control) received the vehicle (0.9% NaCl).\nGroups 5 and 6 received Dipeptiven™ without any dilution, i.e. L-alanyl-L-glutamine in a concentration of 200 mg/ml.\nGroup 3 and 4 animals received diluted Dipeptiven™, i.e. L-alanyl-L-glutamine in a concentration of 13.33 and 80 mg/ml respectively.\nGroup 7 and 8 animals received L-alanine in a concentration of 32 and 80 mg/ml respectively.\nAll animals in groups 1 and 3 to 8 underwent a 5/6 nephrectomy. All animals in group 2 were “sham operated”, meaning the abdomen was opened and closed in the surgery, but the kidneys were not excised and remained in the body.\nDuring the acclimatisation period, a polyurethane catheter was implanted into the posterior vena cava via the left femoral vein. Following implantation, the animals were maintained on continuous infusion with physiological saline prior to the start of treatment.\nMorbidity/mortality checks were performed at least twice daily. Clinical observations were performed daily. A full clinical examination was performed daily. Individual body weights were recorded three times a week. Food consumption was measured three times a week for each cage of animals, including one measurement during the acclimatisation period. Clinical laboratory determinations were performed on selected animals on days −1 and on days 1 to 10. Animals were sampled for amino acid determination on days 1, 4, 7 and 10. Animals were fasted before blood sampling performed on day 10.\nAll animals were killed at the end of the treatment period (day 10) and necropsied. Organ/tissue samples were fixed and preserved at necropsy for all animals. Selected organs/tissues from all animals were examined histopathologically. In addition, selected organs/tissues from all animals were used for amino acid determination.", "key": {"[1]": {"settings": "3.0 g/kg/day continuous i.v. infusion, 9% protein in diet"}, "[2]": {"settings": "groups 4 and 8: 3.0 g/kg/day, 9% protein in diet, control 60%"}}, "note": "Where two headings read alike, the source gives them in different places. Peptide text beside a SMILES is read from it.", "data": [{"smiles": "C[C@H](N)C(=O)O", "note": "[Ala, L-alanine]", "values": [{"measurement": "incidence of chronic progressive nephropathy (animals affected/animals examined)", "setting": "1.2 g/kg/day continuous i.v. infusion, 10.8% protein in diet", "result": "4/5"}, {"measurement": "incidence of chronic progressive nephropathy (animals affected/animals examined)", "setting": "[1]", "result": "3/5"}, {"measurement": "effect on incidence/occurrence of chronic progressive nephropathy (in words)", "result": "did not"}, {"measurement": "occurrence of chronic progressive nephropathy, percent of animals", "setting": "[2]", "result": 60, "unit": "%"}, {"measurement": "changes in blood levels of biomarkers for kidney and liver injury", "result": "No treatment-related"}, {"measurement": "treatment-related clinical signs", "result": "No treatment-related clinical signs"}, {"measurement": "tolerability of intravenous infusion", "result": "overall well tolerated"}]}, {"smiles": "C[C@H](N)C(=O)N[C@@H](CCC(N)=O)C(=O)O", "note": "[Ala-Gln, L-alanyl-L-glutamine] (H-Ala-Gln-OH)", "values": [{"measurement": "incidence of chronic progressive nephropathy (animals affected/animals examined)", "setting": "0.5 g/kg/day continuous i.v. infusion, 12% protein in diet", "result": "2/5"}, {"measurement": "incidence of chronic progressive nephropathy (animals affected/animals examined)", "setting": "[1]", "result": "0/5"}, {"measurement": "incidence of chronic progressive nephropathy (animals affected/animals examined)", "setting": "7.5 g/kg/day continuous i.v. infusion, 4.5% protein in diet", "result": "0/5"}, {"measurement": "incidence of chronic progressive nephropathy (animals affected/animals examined)", "setting": "7.5 g/kg/day continuous i.v. infusion, 12% protein in diet (amino acid overload)", "result": "1/5"}, {"measurement": "incidence of chronic progressive nephropathy (animals affected/animals examined)", "setting": "7.5 g/kg/day continuous i.v. infusion, 12% protein in diet (amino acid overload), listed as L-alanyl-L-glutamine", "result": "2/5"}, {"measurement": "effect on incidence/occurrence of chronic progressive nephropathy (in words)", "result": "decreased incidence of chronic progressive nephropathy"}, {"measurement": "occurrence of chronic progressive nephropathy, percent of animals", "setting": "group 3: 0.5 g/kg/day, 12% protein in diet, control 60%", "result": 40, "unit": "%"}, {"measurement": "occurrence of chronic progressive nephropathy, percent of animals", "setting": "group 5: 7.5 g/kg/day, 4.5% protein in diet, control 60%", "result": 0, "unit": "%"}, {"measurement": "occurrence of chronic progressive nephropathy, percent of animals", "setting": "[2]", "result": 0, "unit": "%"}, {"measurement": "changes in blood levels of biomarkers for kidney and liver injury", "result": "No treatment-related"}, {"measurement": "treatment-related clinical signs", "result": "No treatment-related clinical signs"}, {"measurement": "tolerability of intravenous infusion", "result": "overall well tolerated"}]}, {"smiles": "NC(=O)CC[C@H](N)C(=O)O", "note": "[L-glutamine]", "values": [{"measurement": "effect on incidence/occurrence of chronic progressive nephropathy (in words)", "result": "reduces the occurrence of chronic progressive nephropathy in a dose-dependent manner"}, {"measurement": "occurrence of chronic progressive nephropathy, percent of animals", "setting": "group 6: 7.5 g/kg/day, 12% protein in diet (amino acid overload)", "result": 20, "unit": "%"}]}]}
